Measurements published in patent US7553843B2, “Process for the preparation of purified crystalline CCI-779” (Wyeth, priority 2005, dated 2009).

Assays:
[1] = Storage stability of purified crystalline CCI-779, HPLC strength; format: physicochemical
Text: The good crystallinity of the purified CCI-779 contributes to the improved stability of the purified CCI-779 and longer shelf life, and contains less oxidative impurities. In one embodiment, the purified crystalline CCI-779 of the present invention degrades less than about 3%, less than about 2%, or less than about 1% over a period of about 1 month. Desirably, the purified crystalline CCI-779 retains greater than 97% strength over a period of about 3 months, and more desirably about 6 months at about 5° C. as measured by high performance liquid chromatography (HPLC), among other techniques. The strength is similarly maintained at elevated temperatures up to about 70° C., desirably up to about 51° C., more desirably temperatures up to about 25° C. and greater relative humidities up to about 60%, and most desirably temperatures at about 5° C., or combinations thereof. In one embodiment, the purified crystallized CCI-779 prepared according to the present invention maintains its stability at a temperature of about 25° C. and relative humidity of about 60% for up to about 3 months, and more desirably up to about 6 months.
Following nucleation, the batch was aged for 34 minutes as indicated by the FBRM® instrument to obtain stabilization of the chord count. The pentanediol and heptane were added as described in Example 1. The isolated purified crystalline CCI-779 was washed and dried at 40 EC under vacuum for 48 hours. A yield of 176.3 g of purified crystalline CCI-779 was obtained (87.6%). See Table 1 for the HPLC data for the purified CCI-779 obtained immediately after crystallization and samples tested after 2 weeks and 1 month at varying conditions.
This example was performed using the same protocol as described in Example 2. However, filtration of the crude CCI-779 solution in acetone was completed in 30 minutes by using a medium grit fritted funnel. Following distillation of the acetone, the batch was held as an amorphous foam/oil for 2 hours under reduced pressures. Diethyl ether was then added to the foam/oil and the diethyl ether solution was evaluated for acetone content (8.5 vol %). The diethylether (containing acetone) was then removed by distillation to obtain an amorphous foam. This foam was maintained under reduced pressures for 30 minutes and diethyl ether again added. The diethylether was again monitored for acetone contact and determined to be less than 3.6 vol % acetone. The crystallization was the continued as in Example 2. The induction time for nucleation, i.e., the time required to obtain a chord count for particles of about 1 to about 5 μm particles of greater than about 1500 chords/s was 26 minutes. Following the nucleation, the slurry was stirred for additional time to ensure stabilization of the nucleation. Following isolation and drying as outlined above, a final yield of 175.1 g of purified crystalline CCI-779 was obtained (87.3%). See Table 2, for the HPLC data for the purified crystalline CCI-779 obtained immediately after crystallization and samples tested after 2 weeks and 1 month at varying conditions.

[2] = test system: histologically diverse tumor cells; conditions: in vitro, cited from earlier work
human tumor xenografts = conditions: nude mice; cited from earlier work
orthotopic glioma model = conditions: nude mice; cited from earlier work
[3] = test system: human glioblastoma cell line; conditions: in vitro; cited from earlier work

With CO[C@H]1C[C@@H]2CC[C@@H](C)[C@@](O)(O2)C(=O)C(=O)N2CCCC[C@H]2C(=O)O[C@H]([C@H](C)C[C@@H]2CC[C@@H](OC(=O)C(C)(CO)CO)[C@H](OC)C2)CC(=O)[C@H](C)/C=C(\C)[C@@H](O)[C@@H](OC)C(=O)[C@H](C)C[C@H](C)/C=C/C=C/C=C/1C [CCI-779, Rapamycin 42-ester with 3-hydroxy-2-(hydroxymethyl)-2-methylpropionic acid] the “HPLC Strength” value ([1]; Example 2 batch, Initial (immediately after crystallization)) was 101.09%, the “HPLC Strength” value ([1]; Example 2 batch, storage 5° C., 1 Month) was 97.42% and the “HPLC Strength” value ([1]; Example 2 batch, storage 5° C., 2 Weeks) was 101.09%. For the same molecule, the “HPLC Strength” value ([1]; Example 2 batch, storage 25° C./60% RH, 1 Month) was 97.87%, the “HPLC Strength” value ([1]; Example 2 batch, storage 25° C./60% RH, 2 Weeks) was 101.07% and the “HPLC Strength” value ([1]; Example 3 batch, Initial (immediately after crystallization)) was 100.45%. The “HPLC Strength” value ([1]; Example 3 batch, storage 5° C., 1 Month) was 97.55%, the “HPLC Strength” value ([1]; Example 3 batch, storage 5° C., 2 Weeks) was 100.45% and the “HPLC Strength” value ([1]; Example 3 batch, storage 25° C./60% RH, 1 Month) was 97.81%. The “HPLC Strength” value ([1]; Example 3 batch, storage 25° C./60% RH, 2 Weeks) was 101.30%, the “growth of tumor cells” value ([2]; CNS cancer, T-cell leukemia, breast, prostate, melanoma lines most sensitive) was “inhibit the growth” and the cell cycle effect [2] was “arrested cells in the G1 phase”. The “activity against human tumor xenografts of diverse histological types” value (human tumor xenografts) was “has activity”, the “growth of several human pancreatic tumors and one of two breast cancer lines” value (human tumor xenografts) was “inhibited” and the “activity in orthotopic glioma model” value (orthotopic glioma model) was “active”. The “growth factor (platelet-derived)-induced stimulation of a human glioblastoma cell line” value [3] was “markedly suppressed”.
